26 substances from the OligoGym collection can be followed below.

HELM strings list units from the 5' end as sugar, base in round brackets, then linkage (d deoxyribose, r ribose, m 2'-O-methyl, p phosphodiester). Strings are as the collection lists them; they lack the last nucleoside at the 3' end of the tested compound. [moe] = 2'-O-(2-methoxyethyl) (MOE); [sp] = phosphorothioate linkage; [m5C] = 5-methylcytosine

For this series, the target named is UBE3A-ATS. Nature of the series: mouse, dose not given. The note with it: ASO.

With “RNA1{[moe](G)[sp].[moe]([m5C])p.[moe](T)p.[moe](G)p.[moe](A)p.d(T)[sp].d([m5C])[sp].d(A)[sp].d([m5C])[sp].d(A)[sp].d(T)[sp].d(T)[sp].d(A)[sp].d([m5C])[sp].d([m5C])[sp].[moe]([m5C])p.[moe](A)p.[moe](T)[sp].[moe]([m5C])}$$$$ (last 3' nucleoside missing)”, the 3 h FOB score came out at 0 score 0-7.

“RNA1{[moe](G)[sp].[moe](T)p.[moe]([m5C])p.[moe](A)p.[moe](T)p.[moe]([m5C])p.d(T)[sp].d([m5C])[sp].d(G)[sp].d(G)[sp].d(G)[sp].d(T)[sp].d(A)[sp].d(T)[sp].d(A)[sp].d(T)[sp].[moe](A)p.[moe](A)[sp].[moe](A)}$$$$ (last 3' nucleoside missing)” showed a 3 h FOB score of 4 score 0-7.

Substance “RNA1{[moe]([m5C])[sp].[moe](A)p.[moe](T)p.[moe](T)p.[moe](A)p.d(T)[sp].d(T)[sp].d([m5C])[sp].d(A)[sp].d(A)[sp].d(T)[sp].d(T)[sp].d(A)[sp].d(A)[sp].d(G)[sp].[moe](G)p.[moe](G)p.[moe](T)[sp].[moe](G)}$$$$ (last 3' nucleoside missing)” came in with a 3 h FOB score of 4 score 0-7.

As for “RNA1{[moe](A)[sp].[moe](G)p.[moe]([m5C])p.[moe](T)p.[moe]([m5C])p.d(A)[sp].d([m5C])[sp].d(T)[sp].d(G)[sp].d(A)[sp].d(A)[sp].d(A)[sp].d(G)[sp].d(A)[sp].d([m5C])[sp].[moe](A)p.[moe]([m5C])p.[moe](A)[sp].[moe](A)}$$$$ (last 3' nucleoside missing)”, the 3 h FOB score worked out at 5 score 0-7.

Substance “RNA1{[moe](G)[sp].[moe](A)p.[moe]([m5C])p.[moe](T)p.[moe](A)p.d([m5C])[sp].d(T)[sp].d(T)[sp].d([m5C])[sp].d(A)[sp].d(A)[sp].d([m5C])[sp].d([m5C])[sp].d(T)[sp].d(G)[sp].[moe](A)p.[moe](T)p.[moe](A)[sp].[moe]([m5C])}$$$$ (last 3' nucleoside missing)” showed a 3 h FOB score of 2 score 0-7.

“RNA1{[moe](G)[sp].[moe]([m5C])p.[moe]([m5C])p.[moe](T)p.[moe](G)p.d([m5C])[sp].d(T)[sp].d([m5C])[sp].d(A)[sp].d(A)[sp].d(A)[sp].d(T)[sp].d([m5C])[sp].d(T)[sp].d(G)[sp].[moe]([m5C])p.[moe](G)p.[moe](A)[sp].[moe](A)}$$$$ (last 3' nucleoside missing)” returned a 3 h FOB score of 2 score 0-7.

As to “RNA1{[moe]([m5C])[sp].[moe](T)p.[moe](G)p.[moe](A)p.[moe](T)p.d([m5C])[sp].d(A)[sp].d([m5C])[sp].d(A)[sp].d(T)[sp].d(T)[sp].d(A)[sp].d([m5C])[sp].d([m5C])[sp].d([m5C])[sp].[moe](A)p.[moe](T)p.[moe]([m5C])[sp].[moe]([m5C])}$$$$ (last 3' nucleoside missing)”, the 3 h FOB score was found to be 1 score 0-7.

For “RNA1{[moe]([m5C])[sp].[moe]([m5C])p.[moe](A)p.[moe](T)p.[moe](T)p.d([m5C])[sp].d(A)[sp].d(G)[sp].d([m5C])[sp].d(A)[sp].d([m5C])[sp].d(T)[sp].d(T)[sp].d(A)[sp].d(G)[sp].[moe](G)p.[moe](T)p.[moe](A)[sp].[moe](G)}$$$$ (last 3' nucleoside missing)”, the 3 h FOB score came to 3.7 score 0-7.

“RNA1{[moe](A)[sp].[moe](G)p.[moe]([m5C])p.[moe]([m5C])p.d(A)[sp].d(G)[sp].d(G)[sp].d(T)[sp].d(G)[sp].d(T)[sp].d([m5C])[sp].d(T)[sp].d(T)[sp].d(A)[sp].[moe](T)p.[moe](A)p.[moe](T)p.[moe]([m5C])[sp].[moe](T)}$$$$ (last 3' nucleoside missing)”: the 3 h FOB score stood at 4 score 0-7.

With “RNA1{[moe](G)[sp].[moe]([m5C])p.[moe]([m5C])p.[moe](A)p.[moe](G)p.[moe](G)p.d(T)[sp].d(G)[sp].d(T)[sp].d([m5C])[sp].d(T)[sp].d(T)[sp].d(A)[sp].d(T)[sp].d(A)[sp].d(T)[sp].[moe]([m5C])p.[moe](T)[sp].[moe](A)}$$$$ (last 3' nucleoside missing)”, the 3 h FOB score turned out to be 0 score 0-7.

Regarding “RNA1{[moe](A)[sp].[moe](T)p.[moe](G)p.[moe](A)p.[moe]([m5C])p.d(A)[sp].d(T)[sp].d(A)[sp].d(A)[sp].d([m5C])[sp].d([m5C])[sp].d(A)[sp].d(T)[sp].d(A)[sp].d(T)[sp].[moe](A)p.[moe]([m5C])p.[moe](A)[sp].[moe](A)}$$$$ (last 3' nucleoside missing)”, the 3 h FOB score is 0 score 0-7.

Take “RNA1{[moe](G)[sp].[moe]([m5C])p.[moe](T)p.[moe](G)[sp].d(A)[sp].d(T)[sp].d([m5C])[sp].d(A)[sp].d([m5C])[sp].d(A)[sp].d(T)[sp].d(T)[sp].[moe](A)p.[moe]([m5C])p.[moe]([m5C])p.[moe]([m5C])[sp].[moe](A)}$$$$ (last 3' nucleoside missing)”: the 3 h FOB score is 0 score 0-7.

The substance “RNA1{[moe]([m5C])[sp].[moe]([m5C])p.[moe](T)p.[moe](T)p.[moe](T)p.d([m5C])[sp].d(T)[sp].d(A)[sp].d(T)[sp].d(T)[sp].d(T)[sp].d([m5C])[sp].d(A)[sp].d(G)[sp].d(A)[sp].[moe]([m5C])p.[moe]([m5C])p.[moe](G)[sp].[moe](A)}$$$$ (last 3' nucleoside missing)” came in with a 3 h FOB score of 2.3 score 0-7.

The substance “RNA1{[moe](T)[sp].[moe](T)p.[moe](A)p.[moe](G)p.[moe](T)p.d(A)[sp].d(T)[sp].d(G)[sp].d(T)[sp].d([m5C])[sp].d(G)[sp].d(A)[sp].d(G)[sp].d(A)[sp].d(A)[sp].[moe]([m5C])p.[moe](T)p.[moe]([m5C])[sp].[moe](A)}$$$$ (last 3' nucleoside missing)” registered a 3 h FOB score of 5.5 score 0-7.

The substance “RNA1{[moe]([m5C])[sp].[moe](G)p.[moe](T)p.[moe](G)p.[moe](A)p.[moe](G)[sp].d([m5C])[sp].d(T)[sp].d(A)[sp].d(T)[sp].d([m5C])[sp].d(T)[sp].d(G)[sp].d(T)[sp].[moe](A)p.[moe]([m5C])[sp].[moe](A)}$$$$ (last 3' nucleoside missing)” yielded a 3 h FOB score of 2 score 0-7.

As for “RNA1{[moe](T)[sp].[moe](G)p.[moe]([m5C])p.[moe](A)p.d(T)[sp].d(A)[sp].d([m5C])[sp].d([m5C])[sp].d([m5C])[sp].d(A)[sp].d(G)[sp].d(G)[sp].d(G)[sp].d(T)[sp].[moe](A)p.[moe](G)p.[moe](G)p.[moe](A)[sp].[moe](T)}$$$$ (last 3' nucleoside missing)”, the 3 h FOB score is 1 score 0-7.

For the substance “RNA1{[moe](G)[sp].[moe](T)p.[moe](G)p.[moe](A)p.[moe](G)p.d([m5C])[sp].d(T)[sp].d(A)[sp].d(T)[sp].d([m5C])[sp].d(T)[sp].d(G)[sp].d(T)[sp].d(A)[sp].d([m5C])[sp].[moe](A)p.[moe](A)p.[moe](A)[sp].[moe](A)}$$$$ (last 3' nucleoside missing)”, the 3 h FOB score is 3.2 score 0-7.

Consider “RNA1{[moe]([m5C])[sp].[moe](A)p.[moe](G)p.[moe](T)p.[moe](T)p.[moe](A)[sp].d(G)[sp].d(G)[sp].d(T)[sp].d(T)[sp].d(A)[sp].d(G)[sp].d(T)[sp].d(G)[sp].[moe]([m5C])p.[moe](A)[sp].[moe]([m5C])}$$$$ (last 3' nucleoside missing)”, for which the 3 h FOB score came out at 3.7 score 0-7.

Regarding “RNA1{[moe](G)[sp].[moe](T)p.[moe](G)p.[moe](A)p.[moe](G)p.[moe]([m5C])[sp].d(T)[sp].d(A)[sp].d(T)[sp].d([m5C])[sp].d(T)[sp].d(G)[sp].d(T)[sp].d(A)[sp].[moe]([m5C])p.[moe](A)[sp].[moe](A)}$$$$ (last 3' nucleoside missing)”, the 3 h FOB score is 4.7 score 0-7.

“RNA1{[moe](T)[sp].[moe](A)p.[moe](T)p.[moe](T)p.d(G)[sp].d(G)[sp].d(T)[sp].d([m5C])[sp].d(A)[sp].d(T)[sp].d([m5C])[sp].d(T)[sp].d([m5C])[sp].d(G)[sp].[moe](G)p.[moe](G)p.[moe](T)p.[moe](A)[sp].[moe](T)}$$$$ (last 3' nucleoside missing)” showed a 3 h FOB score of 4 score 0-7.

For “RNA1{[moe](G)[sp].[moe](G)p.[moe]([m5C])p.[moe](A)p.[moe](A)p.d(G)[sp].d([m5C])[sp].d(A)[sp].d(A)[sp].d([m5C])[sp].d(T)[sp].d(A)[sp].d(T)[sp].d(G)[sp].d(G)[sp].[moe](G)p.[moe](T)p.[moe](G)[sp].[moe](G)}$$$$ (last 3' nucleoside missing)”, the 3 h FOB score was determined as 6.2 score 0-7.

“RNA1{[moe]([m5C])[sp].[moe](A)p.[moe](A)p.[moe](T)p.[moe](G)p.d(G)[sp].d(T)[sp].d(T)[sp].d(T)[sp].d(A)[sp].d(G)[sp].d(T)[sp].d(G)[sp].d(T)[sp].d([m5C])[sp].[moe](A)p.[moe](T)p.[moe](A)[sp].[moe](T)}$$$$ (last 3' nucleoside missing)”: the 3 h FOB score stood at 5 score 0-7.

Regarding “RNA1{[moe](T)[sp].[moe](T)p.[moe](T)p.[moe](T)p.[moe](A)p.d(T)[sp].d(T)[sp].d(G)[sp].d(G)[sp].d(T)[sp].d([m5C])[sp].d(A)[sp].d(T)[sp].d([m5C])[sp].d(T)[sp].[moe]([m5C])p.[moe](G)p.[moe](G)[sp].[moe](G)}$$$$ (last 3' nucleoside missing)”, the 3 h FOB score is 2.3 score 0-7.

“RNA1{[moe](G)[sp].[moe](G)p.[moe](A)p.[moe]([m5C])p.[moe](A)p.d([m5C])[sp].d(T)[sp].d([m5C])[sp].d(T)[sp].d([m5C])[sp].d(G)[sp].d([m5C])[sp].d(T)[sp].d(G)[sp].d(A)[sp].[moe](G)p.[moe](G)p.[moe](A)[sp].[moe]([m5C])}$$$$ (last 3' nucleoside missing)” showed a 3 h FOB score of 4.5 score 0-7.

“RNA1{[moe]([m5C])[sp].[moe](G)p.[moe](T)p.[moe](G)p.[moe](A)p.[moe](G)p.d([m5C])[sp].d(T)[sp].d(A)[sp].d(T)[sp].d([m5C])[sp].d(T)[sp].d(G)[sp].d(T)[sp].d(A)[sp].d([m5C])[sp].[moe](A)p.[moe](A)[sp].[moe](A)}$$$$ (last 3' nucleoside missing)” showed a 3 h FOB score of 1 score 0-7.

Regarding “RNA1{[moe]([m5C])[sp].[moe](T)p.[moe](A)p.[moe](G)p.[moe](G)p.d([m5C])[sp].d(A)[sp].d(G)[sp].d([m5C])[sp].d(T)[sp].d([m5C])[sp].d(T)[sp].d(T)[sp].d(T)[sp].d(G)[sp].[moe](T)p.[moe](A)p.[moe](G)[sp].[moe](G)}$$$$ (last 3' nucleoside missing)”, the 3 h FOB score is 0.3 score 0-7.
